“Also recorded” adds a separate entry of the source. Read-outs that look alike come from different tables or passages of the source.
Tests used:
[1] = biological target: T1, MTH1 (Homo sapiens, UniProt P36639); test: Hydrolysis of triphosphate derivatives by MTH1 (HPLC time course); type: biochemical; details: 50 μM dNTP, 5 nM MTH1, 37 °C, various times
Description: Since the shapes of synthesized triphosphate derivatives were similar to 8-oxo-dGTP, we investigated whether these triphosphate derivatives are hydrolyzed by MTH1. MTH1 and these triphosphate derivatives were mixed and incubated at 37 °C for various times, and hydrolysis reactions were analyzed by HPLC. […] However, in the case of 7,8-dihalogenated triphosphate derivatives, the peak of the corresponding monophosphate was not detected in HPLC following the treatment with MTH1 (Figure 2. 9: purple, 10: red and 11: blue lines).
The reaction mixture was pre-incubated at 37 °C for 10 min before the addition of MTH1 to a final volume of 100 L (final concentration: 20 mM Tris-HCl, pH 7.5, 4 mM MgCl2, 40 mM NaCl, […] bovine serum albumin (BSA), 8 mM dithiothreitol (DTT), 10% glycerol; 0.5 pmol MTH1; 50 μM 7,8-dihalogenated-7-deaza-dGTP […], 8-CF3-7-deaza-dGTP (4), and 8-oxo-dGTP). The resulting solutions were incubated at 37 °C for various times and quenched with 100 μL of stop solution (5 mM EDTA). All samples were loaded on ice before the analysis with HPLC (HPLC conditions: A: 0.1 M TEAA, B: CH3CN; Flow rate: 1.0 mL/min; Shiseido MG1 (4.6 × 250 mm); UV detector: 254 nm; column oven: 35 °C).
Figure 2 Time courses of the hydrolysis of 8-oxo-dGTP, 7-deaza-dGTP, and 7,8-dihalogenated-7-deaza-dGTP (9, 10, and 11) by MTH1. Reaction conditions: 20 mM Tris-HCl pH 7.5, 4 mM MgCl2, 40 mM NaCl, 80 μg/mL bovine serum albumin (BSA), 8 mM dithiothreitol (DTT), 10% glycerol; 50 μM 8-oxo-dGTP, 5 nM MTH1; 50 μM dNTPs; incubated at 37 °C for various times. Hydrolysis reactions were analyzed by HPLC, and the cleavage rate was calculated from the peak area.

[2] = biological target: T1, MTH1; test: Inhibition of the MTH1 hydrolysis of 8-oxo-dGTP (HPLC); type: biochemical; details: 50 μM 8-oxo-dGTP, 5 nM MTH1, pH 7.5, 37 °C, 10 min
Description: We examined whether the nucleoside diols, nucleoside monophosphate (NMP), and nucleoside triphosphate (NTP) derivatives inhibit the MTH1 hydrolysis of 8-oxo-dGTP. MTH1 and 8-oxo-dGTP were mixed with various concentrations of synthesized derivatives, and this mixture was incubated and analyzed by HPLC. In the case of diol compounds, 7,8-dichloro-7-deaza-dG (1), 7,8-dibromo-7-deaza-dG (2), and 7,8-diiodo-7-deaza-dG (3) exerted inhibitory effects on the hydrolytic activity of MHT1 at a micromolar level (Table 1, Entries 1–3). Their IC50 values were better than that of 8-iodo-7-deaza-dG (4) (Table 1, Entry 4).
Twenty microliters of MTH1 buffer (100 mM Tris-HCl, pH 7.5, 20 mM MgCl2, 200 mM NaCl, […] BSA, 40 mM DTT, and 50% glycerol), 10 μL (500 μM) of 8-oxo-dGTP, 55 μL of MilliQ, and 10 μL of various concentrations of substituted 7-deaza-dG derivatives were pre-incubated at 37 °C for 10 min (concentrations used: 7-deaza-dG, 7,8-dihalogenated-7-deaza-dG were 0, 0.5, 1, 2.5, 5, 10, 25, 50, 100, and 250 μM in 1% DMSO; 8-CF3-7-deazadGMP (3) was 0, 0.05, 0.1, 0.25, 0.5, 1, 2.5, 5, 10, and 25 μM; 7,8-dihalogenated-7-deaza-dGMP and –dGTP were 0, 0.0125, 0.025, 0.05, 0.1, 0.25, 0.5, 1, and 2.5 μM). Five microliters of MTH1 (0.1 pmol/μL in MTH1 buffer) was added, and the reaction mixture was incubated at 37 °C for 10 min. The resulting solutions were quenched with 100 μL of stop solution (5 mM EDTA). All samples were loaded on ice before the analysis with HPLC (HPLC conditions: A: 0.1 M TEAA, B: MeCN; Flow rate: 1.0 mL/min; Shiseido MG1 (4.6 × 250 mm); UV detector: 254 nm; 35 °C). The relative hydrolysis ratio values (ratio with inhibitor/ratio without inhibitor) were plotted at each inhibitor concentration. IC50 values were assessed using images.

[3] = biological target: T1, MTH1; test: Steady-state kinetics of MTH1 hydrolysis of 8-oxo-dGTP (Lineweaver-Burk plot); type: biochemical; details: 2 nM MTH1, 37 °C
Text: We made a Lineweaver-Burk plot to calculate kinetic parameters (KM and kcat) in order to reveal the types of inhibition modes for MTH1. […] In the presence of new 7-deaza-dG monophosphate and triphosphate, kcat values were only slightly altered (Entries 2–7). On the other hand, all KM values increased (Entries 2–7).

[4] = biological target: T1, MTH1; design: method as in earlier work; details: inhibition of the hydrolytic activity of MTH1; ChemBioChem 17, 566 (2016); cited from earlier work
[5] = biological target: T1, MTH1; design: method as in doi:10.1016/j.tet.2014.01.047, PMID 26879218, PMID 27372838; details: earlier work of the authors; cited from earlier work
[6] = 8-oxo-dGTP hydrolysis in the presence of inhibitor, 10–250 μM 8-oxo-dGTP
[7] = substrate 8-oxo-dGTP, in the absence of inhibitors

Hydrolysis to the monophosphate by MTH1 [1] | IC50 [2] [nM] | kcat [3, 6] [s⁻¹] | Ki ([3]; 10–250 μM 8-oxo-dGTP) [nM] | Structure (SMILES) | other results
not hydrolyzed |  |  |  | CC(=O)OC[C@H]1O[C@@H](n2ccc3c(=O)[nH]c(N)nc32)C[C@@H]1OC(C)=O [Compound 13, 3′,5′-di-O-Acetyl-7-deaza-2′-deoxyguanosine] | 
 | 130 | 9.7 | 37 | Nc1nc2c(c(Cl)c(Cl)n2[C@H]2C[C@H](O)[C@@H](COP(=O)(O)O)O2)c(=O)[nH]1 [Compound 5, 7,8-di-Chloro-7-deaza-2′-deoxy-guanosine monophosphate] | 
 | 840 |  |  | Nc1nc2c(cc(I)n2[C@H]2C[C@H](O)[C@@H](COP(=O)(O)O)O2)c(=O)[nH]1 [Compound 8, 8-Iodo-7-deaza-2′-deoxy-guanosine monophosphate] | 
 | 10700 |  |  | Nc1nc2c(c(Br)c(Br)n2[C@H]2C[C@H](O)[C@@H](CO)O2)c(=O)[nH]1 [Compound 2, 7,8-di-Bromo-7-deaza-2′-deoxy-guanosine] | 
 | 22500 |  |  | Nc1nc2c(c(Cl)c(Cl)n2[C@H]2C[C@H](O)[C@@H](CO)O2)c(=O)[nH]1 [Compound 1, 7,8-di-Chloro-7-deaza-2′-deoxy-guanosine] | 
 | 260 | 9.1 | 27.9 | Nc1nc2c(c(Br)c(Br)n2[C@H]2C[C@H](O)[C@@H](COP(=O)(O)O)O2)c(=O)[nH]1 [Compound 6, 7,8-di-Bromo-7-deaza-2′-deoxy-guanosine monophosphate] | 
 | 17000 |  |  | Nc1nc2c(c(I)c(I)n2[C@H]2C[C@H](O)[C@@H](CO)O2)c(=O)[nH]1 [Compound 3, 7,8-di-Iodo-7-deaza-2′-deoxy-guanosine] | 
not detected | 160 | 9.3 | 28.1 | Nc1nc2c(c(Cl)c(Cl)n2[C@H]2C[C@H](O)[C@@H](COP(=O)(O)OP(=O)(O)OP(=O)(O)O)O2)c(=O)[nH]1 [Compound 9, 7,8-di-Chloro-7-deaza-2′-deoxy-guanosine triphosphate] | 
rapidly hydrolyzed |  |  |  | NC1=NC(=O)C2=NC(=O)N([C@H]3C[C@H](O)[C@@H](COP(=O)(O)OP(=O)(O)OP(=O)(O)O)O3)C2=N1 [Compound 8-oxo-dGTP, 8-oxo-2′-deoxyguanosine-5′-triphosphate, reference compound] | Km [3, 7]: 17.6 µM; kcat [3, 7]: 10.6 s⁻¹
not detected | 130 | 11.9 | 30.4 | Nc1nc2c(c(I)c(I)n2[C@H]2C[C@H](O)[C@@H](COP(=O)(O)OP(=O)(O)OP(=O)(O)O)O2)c(=O)[nH]1 [Compound 11, 7,8-di-Iodo-7-deaza-2′-deoxy-guanosine triphosphate] | 
 |  |  |  | CNc1cc(-c2cccc(Cl)c2Cl)nc(N)n1 [TH287, reference compound] | IC50 [4]: 10 nM
 |  |  |  | Nc1nc2c(cc(I)n2[C@H]2C[C@H](O)[C@@H](CO)O2)c(=O)[nH]1 [Compound 4, 8-iodo-7-deaza-dG] | IC50 [4]: 44800 nM
not hydrolyzed | 130 | 10.7 |  | Nc1nc2c(c(I)c(I)n2[C@H]2C[C@H](O)[C@@H](COP(=O)(O)O)O2)c(=O)[nH]1 [Compound 7, 7,8-di-Iodo-7-deaza-2′-deoxy-guanosine monophosphate] | 
 |  |  |  | Nc1nc2c(cc(I)n2[C@H]2C[C@H](O)[C@@H](COP(=O)(O)OP(=O)(O)OP(=O)(O)O)O2)c(=O)[nH]1 [Compound 12, 8-iodo-7-deaza-dGTP] | IC50 [4]: 420 nM; Ki [5]: 61.7 nM

Structure (SMILES) | Hydrolysis to the monophosphate by MTH1 [1] | IC50 [2] [nM] | kcat [3, 6] [s⁻¹] | Ki ([3]; 10–250 μM 8-oxo-dGTP) [nM] | other results
Nc1nc2c(ccn2[C@H]2C[C@H](O)[C@@H](COP(=O)(O)OP(=O)(O)OP(=O)(O)O)O2)c(=O)[nH]1 [Compound 7-deaza-dGTP, 7-deaza-dGTP, reference compound] | hydrolyzed, but more slowly than 8-oxo-dGTP |  |  |  | 
Nc1nc2c(c(Br)c(Br)n2[C@H]2C[C@H](O)[C@@H](COP(=O)(O)OP(=O)(O)OP(=O)(O)O)O2)c(=O)[nH]1 [Compound 10, 7,8-di-Bromo-7-deaza-2′-deoxy-guanosine triphosphate] | not detected; also recorded: not hydrolyzed | 110 | 9.4 | 24.2 | 

Source: article PMC7866122, “Development of MTH1-Binding Nucleotide Analogs Based on 7,8-Dihalogenated 7-Deaza-dG Derivatives” (International Journal of Molecular Sciences, 2021)
